Test results: article PMC12463105, “NSP7 Molecular Degrader Attenuates Coronaviral Infection Through the β‐TrCP1/FBXO5 Axis” (Advanced Science, 2025)

Tests used:
SARS-CoV-2 NSP7-HiBiT = conditions: read-out: NSP7- HiBiT; reduction of NSP7-HiBiT signal; degrader
HCoV-OC43 = tested on: T1, HCoV-OC43; experiment: microbe, parasite or virus in culture; design: HCoV-OC43 infection assay, reduction of viral infection; conditions: Betacoronavirus 1, OC43, read-out: OC43
T1 construct: ATCC VR-1558

SMILES	IC50 (SARS-CoV-2 NSP7-HiBiT) [µM]	IC50 (HCoV-OC43) [µM]
CCSc1nsc(NC(=O)NCc2ccc(OC)cc2)n1 [BC24906, 3-(ethylthio)-5-{3-[(p-methoxyphenyl)methyl]ureido}-1,2,4-thiadiazole]	> 100	> 100
CCOCCCNC(=O)Nc1nc(SCC)ns1 [BC24875, 5-[3-(3-ethoxypropyl)ureido]-3-(ethylthio)-1,2,4-thiadiazole]	> 100	> 100
CCSc1nsc(NC(=O)NC(C)(C)C)n1 [BC24900, 5-(3-tert-butylureido)-3-(ethylthio)-1,2,4-thiadiazole]	> 100	> 100
CCSc1nsc(NC(=O)Nc2cccc(SC)c2)n1 [BC24888, 3-(ethylthio)-5-{3-[m-(methylthio)phenyl]ureido}-1,2,4-thiadiazole]	9.09	5.27
CCSc1nsc(NC(=O)NCc2cccc(F)c2)n1 [BC24904, 3-(ethylthio)-5-{3-[(m-fluorophenyl)methyl]ureido}-1,2,4-thiadiazole]	> 100	> 100
CCSc1nsc(NC(=O)NC2CCCC2)n1 [BC24872, 5-(3-cyclopentylureido)-3-(ethylthio)-1,2,4-thiadiazole]	> 100	30.9
CCSc1nsc(NC(=O)Nc2ccc(F)c(Cl)c2)n1 [BC24856, 5-[3-(3-chloro-4-fluorophenyl)ureido]-3-(ethylthio)-1,2,4-thiadiazole]	11.8	1.41
CCSc1nsc(NC(=O)NCc2ccco2)n1 [BC24885, 3-(ethylthio)-5-(3-furfurylureido)-1,2,4-thiadiazole]	> 100	> 100
CCOC(=O)Cc1ccc(NC(=O)Nc2nc(SCC)ns2)cc1 [BC24865, ethyl (p-{3-[3-(ethylthio)-1,2,4-thiadiazol-5-yl]ureido}phenyl)acetate]	27.8	10.7
CCSc1nsc(NC(=O)Nc2cccc(Br)c2)n1 [BC24860, 5-[3-(m-bromophenyl)ureido]-3-(ethylthio)-1,2,4-thiadiazole]	1.18	1.18
CCSc1nsc(NC(=O)NCCOC)n1 [BC24899, 3-(ethylthio)-5-[3-(2-methoxyethyl)ureido]-1,2,4-thiadiazole]	> 100	> 100
CCSc1nsc(NC(=O)Nc2cccc(OC)c2)n1 [BC24841, 3-(ethylthio)-5-[3-(m-methoxyphenyl)ureido]-1,2,4-thiadiazole]	12.3	5.5
CCSc1nsc(NC(=O)Nc2ccc3c(c2)OCCO3)n1 [BC24880, 5-[3-(2,3-dihydro-1,4-benzodioxin-6-yl)ureido]-3-(ethylthio)-1,2,4-thiadiazole]	33.1	21.2
CCSc1nsc(NC(=O)Nc2c(C)cccc2C)n1 [BC24905, 3-(ethylthio)-5-[3-(2,6-xylyl)ureido]-1,2,4-thiadiazole]	22.1	15.8
CCSc1nsc(NC(=O)Nc2cc(F)c(F)c(F)c2)n1 [BC24910, 3-(ethylthio)-5-[3-(3,4,5-trifluorophenyl)ureido]-1,2,4-thiadiazole]	2.23	0.42
CCSc1nsc(NC(=O)Nc2ccc(F)cc2F)n1 [BC24884, 5-[3-(2,4-difluorophenyl)ureido]-3-(ethylthio)-1,2,4-thiadiazole]	27.6	16.9
CCSc1nsc(NC(=O)Nc2ccc(Br)c(C)c2)n1 [BC24878, 5-[3-(4-bromo-3-tolyl)ureido]-3-(ethylthio)-1,2,4-thiadiazole]	3.8	2.55
CCSc1nsc(NC(=O)Nc2ccc(C(F)(F)F)cc2)n1 [BC24912, 3-(ethylthio)-5-{3-[p-(trifluoromethyl)phenyl]ureido}-1,2,4-thiadiazole]	1.76	0.672
CCSc1nsc(NC(=O)Nc2cc(F)cc(F)c2)n1 [BC24850, 5-[3-(3,5-difluorophenyl)ureido]-3-(ethylthio)-1,2,4-thiadiazole]	2.96	1.22
CCSc1nsc(NC(=O)Nc2ccc(OC)cc2C)n1 [BC24916, 3-(ethylthio)-5-[3-(4-methoxy-2-tolyl)ureido]-1,2,4-thiadiazole]	> 100	17.2
CCSc1nsc(NC(=O)Nc2ccc(C)cc2)n1 [BC24854, 3-(ethylthio)-5-[3-(p-tolyl)ureido]-1,2,4-thiadiazole]	45.1	26.6
CCSc1nsc(NC(=O)Nc2ccc(F)cc2)n1 [BC24870, 3-(ethylthio)-5-[3-(p-fluorophenyl)ureido]-1,2,4-thiadiazole]	17	10.1
CCSc1nsc(NC(=O)Nc2cccc(Cl)c2F)n1 [BC24911, 5-[3-(3-chloro-2-fluorophenyl)ureido]-3-(ethylthio)-1,2,4-thiadiazole]	9.72	8.13
CCSc1nsc(NC(=O)Nc2ccccc2Cl)n1 [BC24843, 5-[3-(o-chlorophenyl)ureido]-3-(ethylthio)-1,2,4-thiadiazole]	26.2	16.2

SMILES	IC50 (SARS-CoV-2 NSP7-HiBiT) [µM]	IC50 (HCoV-OC43) [µM]
CCSc1nsc(NC(=O)Nc2ccc(C)cc2Cl)n1 [BC24851, 5-[3-(2-chloro-4-tolyl)ureido]-3-(ethylthio)-1,2,4-thiadiazole]	> 100	17.4
CCCCc1ccc(NC(=O)Nc2nc(SCC)ns2)cc1 [BC24908, 5-[3-(p-butylphenyl)ureido]-3-(ethylthio)-1,2,4-thiadiazole]	30	18.3
CCSc1nsc(NC(=O)Nc2ccc(OC)cc2)n1 [BC24857, 3-(ethylthio)-5-[3-(p-methoxyphenyl)ureido]-1,2,4-thiadiazole]	> 100	88.8
CCOc1ccccc1NC(=O)Nc1nc(SCC)ns1 [BC24858, 5-[3-(o-ethoxyphenyl)ureido]-3-(ethylthio)-1,2,4-thiadiazole]	> 100	24.3
CCSc1nsc(NC(=O)Nc2cccc(C(F)(F)F)c2)n1 [BC24877]	0.9	0.733
CCSc1nsc(NC(=O)Nc2cccc(F)c2C)n1 [BC24907, 3-(ethylthio)-5-[3-(3-fluoro-2-tolyl)ureido]-1,2,4-thiadiazole]	9.85	3.36
CCSc1nsc(NC(=O)Nc2ccc(Cl)c(C(F)(F)F)c2)n1 [BC24852, 5-{3-[4-chloro-3-(trifluoromethyl)phenyl]ureido}-3-(ethylthio)-1,2,4-thiadiazole]	2.76	0.907
CCOC(=O)CCNC(=O)Nc1nc(SCC)ns1 [BC24897, ethyl 3-{3-[3-(ethylthio)-1,2,4-thiadiazol-5-yl]ureido}propionate]	> 100	> 100
CCSc1nsc(NC(=O)Nc2cccc(Cl)c2)n1 [BC24842, 5-[3-(m-chlorophenyl)ureido]-3-(ethylthio)-1,2,4-thiadiazole]	2.15	1.56
CCSc1nsc(NC(=O)Nc2cccc(F)c2)n1 [BC24895, 3-(ethylthio)-5-[3-(m-fluorophenyl)ureido]-1,2,4-thiadiazole]	8.87	2.53
CCSc1nsc(NC(=O)NCc2ccc(F)cc2)n1 [BC24886, 3-(ethylthio)-5-{3-[(p-fluorophenyl)methyl]ureido}-1,2,4-thiadiazole]	> 100	> 100
CCSc1nsc(NC(=O)NCc2ccc(C)cc2)n1 [BC24879, 3-(ethylthio)-5-{3-[(p-tolyl)methyl]ureido}-1,2,4-thiadiazole]	27.6	13.3
CCSc1nsc(NC(=O)NCCC(=O)OC)n1 [BC24874, methyl 3-{3-[3-(ethylthio)-1,2,4-thiadiazol-5-yl]ureido}propionate]	> 100	84.2
CCSc1nsc(NC(=O)Nc2ccc(C)c(C)c2)n1 [BC24848, 3-(ethylthio)-5-[3-(3,4-xylyl)ureido]-1,2,4-thiadiazole]	15.5	7.05
CCOC(=O)CNC(=O)Nc1nc(SCC)ns1 [BC24868, ethyl {3-[3-(ethylthio)-1,2,4-thiadiazol-5-yl]ureido}acetate]	> 100	> 100
CCOc1ccc(NC(=O)Nc2nc(SCC)ns2)cc1 [BC24859, 5-[3-(p-ethoxyphenyl)ureido]-3-(ethylthio)-1,2,4-thiadiazole]	> 100	52.1
CCSc1nsc(NC(=O)Nc2cc(C)ccc2C)n1 [BC24849, 3-(ethylthio)-5-[3-(2,5-xylyl)ureido]-1,2,4-thiadiazole]	12.8	5.35
CCSc1nsc(NC(=O)Nc2cccc(Cl)c2C)n1 [BC24862, 5-[3-(3-chloro-2-tolyl)ureido]-3-(ethylthio)-1,2,4-thiadiazole]	7	5.68
CCSc1nsc(NC(=O)N[C@@H](C)C(=O)OC)n1 [BC24889, methyl (S)-2-{3-[3-(ethylthio)-1,2,4-thiadiazol-5-yl]ureido}propionate]	> 100	> 100
CCSc1nsc(NC(=O)Nc2ccc3c(c2)CCC3)n1 [BC24915, 3-(ethylthio)-5-[3-(5-indanyl)ureido]-1,2,4-thiadiazole]	34	17.4
CCSc1nsc(NC(=O)Nc2ccccc2C)n1 [BC24855, 3-(ethylthio)-5-[3-(o-tolyl)ureido]-1,2,4-thiadiazole]	35.2	8.23
CCOC(=O)C1CCC(CNC(=O)Nc2nc(SCC)ns2)CC1 (stereo not drawn) [BC24913, ethyl 4-({3-[3-(ethylthio)-1,2,4-thiadiazol-5-yl]ureido}methyl)cyclohexanecarboxylate]	> 100	17.4
CCSc1nsc(NC(=O)Nc2ccccc2[N+](=O)[O-])n1 [BC24846, 3-(ethylthio)-5-[3-(o-nitrophenyl)ureido]-1,2,4-thiadiazole]	24.3	11.4
CCSc1nsc(NC(=O)Nc2ccc(C)cc2C)n1 [BC24867, 3-(ethylthio)-5-[3-(2,4-xylyl)ureido]-1,2,4-thiadiazole]	> 100	13
